One molecule from article PMC12756865, “Inhibitory effect of oestradiol on the cardiac KV7.1/KCNE1 channel is species dependent” (Experimental Physiology, 2025) can be followed below.

Type in all cases: cell-based
One assay concerns the target T1, human KV7.1/rabbit KCNE1 (Homo sapiens; Oryctolagus cuniculus, UniProt P51787+Q28705).
T1 construct: gene KCNQ1; cross-species complex of two intact wild-type subunits (no fusion): human KV7.1 and rabbit KCNE1 cRNAs co-injected in Xenopus laevis oocytes
Nature of the assay: two-electrode voltage clamp, Xenopus oocytes, change of Gmax. As to conditions: 10 µM; inhibition; EC50 fit ambiguous; pH 7.4, about 20 °C; ethanol vehicle. From the text:
two-electrode voltage clamp, Xenopus oocytes, change of Gmax on human KV7.1/rabbit KCNE1
On the technique in general: Two-electrode voltage clamp holds a large cell at a set potential and records current.

For assay [1], the target named is T2, human KV7.1/KCNE1 (tested as KV7.1/KCNE1_K69Q) (Homo sapiens, UniProt P15382+P51787, P15382:K69Q).
T2 construct: gene KCNQ1; KV7.1 and KCNE1 cRNAs co-injected in Xenopus laevis oocytes; KCNE1 in excess; four KV7.1 with one to four KCNE1
T2 sequence (P51787 whole entry): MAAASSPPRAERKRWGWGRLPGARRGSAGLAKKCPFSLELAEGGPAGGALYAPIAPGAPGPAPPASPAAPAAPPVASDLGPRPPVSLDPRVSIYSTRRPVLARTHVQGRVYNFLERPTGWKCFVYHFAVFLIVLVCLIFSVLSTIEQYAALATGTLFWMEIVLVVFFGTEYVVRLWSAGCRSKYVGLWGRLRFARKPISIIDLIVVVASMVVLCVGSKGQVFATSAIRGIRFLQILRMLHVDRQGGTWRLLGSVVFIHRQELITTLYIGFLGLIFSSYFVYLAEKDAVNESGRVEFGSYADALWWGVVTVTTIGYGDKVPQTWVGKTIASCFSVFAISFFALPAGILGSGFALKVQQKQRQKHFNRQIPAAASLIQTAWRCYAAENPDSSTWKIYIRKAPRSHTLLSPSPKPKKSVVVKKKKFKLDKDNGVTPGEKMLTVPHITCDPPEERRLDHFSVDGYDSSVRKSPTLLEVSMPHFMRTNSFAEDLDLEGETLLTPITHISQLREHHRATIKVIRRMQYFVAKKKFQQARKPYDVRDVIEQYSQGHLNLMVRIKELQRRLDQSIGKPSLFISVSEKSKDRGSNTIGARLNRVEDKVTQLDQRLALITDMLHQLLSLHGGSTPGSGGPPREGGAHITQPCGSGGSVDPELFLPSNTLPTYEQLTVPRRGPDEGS
Nature of the assay: two-electrode voltage clamp, Xenopus oocytes, reduction of Gmax.

The next assay concerns the target T3, rabbit KV7.1/KCNE1 (Oryctolagus cuniculus, UniProt Q28705+Q9MYS6).
T3 construct: gene KCNQ1; wild-type KV7.1 and KCNE1 cRNAs co-injected in Xenopus laevis oocytes; KCNE1 in excess; four KV7.1 with one to four KCNE1
The description is as above.

The target of the next assay is T4, rabbit KV7.1/human KCNE1 (Oryctolagus cuniculus; Homo sapiens, UniProt P15382+Q9MYS6).
T4 construct: gene KCNQ1; cross-species complex of two intact wild-type subunits (no fusion): rabbit KV7.1 and human KCNE1 cRNAs co-injected in Xenopus laevis oocytes
T4 sequence (Q9MYS6 whole entry, the tested form may be a part): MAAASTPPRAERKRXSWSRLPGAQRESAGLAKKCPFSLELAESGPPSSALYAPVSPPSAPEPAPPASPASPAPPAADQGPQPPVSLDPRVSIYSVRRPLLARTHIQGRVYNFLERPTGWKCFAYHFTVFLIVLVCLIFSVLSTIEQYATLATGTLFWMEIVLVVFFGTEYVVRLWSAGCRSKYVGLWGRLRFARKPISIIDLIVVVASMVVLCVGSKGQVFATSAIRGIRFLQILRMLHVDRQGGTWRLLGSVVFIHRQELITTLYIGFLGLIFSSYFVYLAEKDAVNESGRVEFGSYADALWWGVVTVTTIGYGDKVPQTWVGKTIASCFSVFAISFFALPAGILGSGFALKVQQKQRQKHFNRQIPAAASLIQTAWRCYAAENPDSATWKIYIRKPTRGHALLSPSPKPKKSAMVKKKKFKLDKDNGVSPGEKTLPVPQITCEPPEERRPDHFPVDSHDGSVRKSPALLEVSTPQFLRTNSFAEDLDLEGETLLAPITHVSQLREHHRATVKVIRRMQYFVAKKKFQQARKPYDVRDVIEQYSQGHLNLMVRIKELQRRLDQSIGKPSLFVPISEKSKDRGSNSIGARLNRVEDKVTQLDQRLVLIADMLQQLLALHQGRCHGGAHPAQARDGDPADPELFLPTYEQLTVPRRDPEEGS
Nature of the assay: two-electrode voltage clamp, Xenopus oocytes, change of Gmax. As to conditions: 10 µM; inhibition; EC50 fit ambiguous; pH 7.4, about 20 °C; ethanol vehicle. From the text:
two-electrode voltage clamp, Xenopus oocytes, change of Gmax on rabbit KV7.1/human KCNE1

The target in a further assay is T5, guinea pig KV7.1/KCNE1 (Cavia porcellus, UniProt A6Y9U2+Q60409).
T5 construct: gene KCNQ1; wild-type KV7.1 and KCNE1 cRNAs co-injected in Xenopus laevis oocytes; KCNE1 in excess; four KV7.1 with one to four KCNE1
The assay is described as above. As to conditions: 3 µM; inhibition; EC50 fit ambiguous; pH 7.4, about 20 °C; ethanol vehicle. From the text: two-electrode voltage clamp, Xenopus oocytes, change of Gmax on guinea pig KV7.1/KCNE1

Structures are written as SMILES.

T1 sequence (P51787 whole entry, the tested form may be a part): as the sequence (P51787 whole entry) above
T1 sequence (Q28705 whole entry, the tested form may be a part): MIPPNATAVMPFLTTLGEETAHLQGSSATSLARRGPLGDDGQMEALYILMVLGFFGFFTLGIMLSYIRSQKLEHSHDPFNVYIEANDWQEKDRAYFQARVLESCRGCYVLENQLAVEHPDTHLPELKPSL
T3 sequence (Q9MYS6 whole entry): as the sequence (Q9MYS6 whole entry, the tested form may be a part) above
T3 sequence (Q28705 whole entry): as the sequence (Q28705 whole entry, the tested form may be a part) above

Regarding `C[C@]12CC[C@@H]3c4ccc(O)cc4CC[C@H]3[C@@H]1CC[C@@H]2O` [17β‐E2], the ΔG max is given as −77.8 ± 6.2 (SEM) % on human KV7.1/rabbit KCNE1, −91.9 ± 3.0 (SEM) % on rabbit KV7.1/human KCNE1 and −37.8 ± 3.7 (SEM) % on guinea pig KV7.1/KCNE1. For the same molecule, the EC50 was found to be 2900 nM in assay [1] and 230 nM at rabbit KV7.1/KCNE1.

As a reminder, the EC50 is the midpoint of the concentration-response curve. The low end stands for a more potent agent, the high end for a less potent agent.
